According to patent US20160082016A1, “Use of Clonazepam in Combination with Antibiotic in the Treatment of Bacterially Induced Meningitis” (COMMISSARIAT A L'ENERGIE ATOMIQUE ET AUX ENERGIES …, priority 2013, published 2016):

Key:
[1] = system: pentylenetetrazol (PTZ) induced tonic seizures; assay: Anti-epileptic effect at low dose: time before pentylenetetrazol (PTZ) induced tonic seizure; assay type: in vivo, mice
[2] = in vivo; cited from earlier work
Streptococcus Pneumoniae [3] = assay: Survival of Swiss mice inoculated with Streptococcus Pneumoniae, treated with ceftriaxone plus adjuvant (bacterial meningitis model); assay type: in vivo
Method: 200 μL of suspended 1 Mc Farland bacteria (Streptococcus Pneumoniae, CRBIP, Institut Pasteur) were seeded overnight on blood Columbia plates (BioRad). 24 h later, bacteria were suspended in 5 mL phosphate buffer solution (PBS), and diluted to obtain 1 Mc Farland 600 nm optical density (3,2.10^7 bacteria/mL for this strain).
A mice model mimicking human bacterial meningitis (Gerber G., Acta Neuropathol. 2001) was implemented; Swiss male mice were used, with food and water ab libitum. Mice were anaesthetized using isoflurane.
The Swiss mice model has been chosen for the following reasons: • It is possible to induce bacterial meningitis in a direct and reproducible way (Gerber G., Acta Neuropathol. 2001). • The induced meningitis is similar to human meningitis (Gerber G., Acta Neuropathol. 2001). In particular, the inoculated mice present several […] symptoms/responses as infected humans. The data obtained with this model can therefore be transposed to human. • Efficiency of antibiotic agents for treating bacterial meningitis is currently studied in mice (Shapiro M. A. et al, J. Antimicrob. Chemother. 2000).
A 1/80 dilution of the prepared bacteria was then performed, so as to obtain 10^4 bacteria in 25 μL. 25 μL bacteria suspension were injected in the left brain hemisphere. 24 h, 48 h and 72 h later, mice were treated with 4 mg/day, 0.4 mg/day and 0.4 mg/day respectively of ceftriaxone. Clonazepam (or saline buffer, or water) was administrated 25 h post inoculation, by intraperitoneal (ip) or oral (po) route. Mortality was assessed several times per day, during 9 days.

Streptococcus Pneumoniae [4] = assay: Antibiogram: growth inhibition diameter around paper disks on Mueller-Hinton gelose; assay type: cell-based; conditions: 24 hours, FIG. 5
Method: Antibiograms have been performed on the same Streptococcus Pneumoniae strain, on a Mueller-Hinton gelose plate of 90 mm diameter (Biorad) as follows 40 μL of the prepared bacteria were added to 5 mL PBS and the mix is spread on the gelose plate. The remaining liquid mix is thrown and the plate was incubated at 37° C. during 15 minutes. Antibiotic paper disks of 6mm diameter (Dominique Dutscher) were then overwhelmed with 25 μL of each molecule/combination and placed on the Mueller-Hinton gelose for 24 hours. The inhibition diameter of bacterial cell growth around the disks was then measured. • Ceftriaxone (3,2-1,6-0,8-0,4-0,2-0,1-0,05 μg/mL) • Clonazepam (10-1-0,1 μg/mL) • Ceftriaxone (0,8-0,2-0,05 μg/mL)+Clonazepam (0,1 μg/mL)

| SMILES | Anti-epileptic effect (time before tonic seizures) ([1]; Streptococcus Pneumoniae inoculated mice, clonazepam doses inferior to 5 μg/kg, FIG. 4) | Anti-epileptic effect at the efficient adjuvant dose ([1]; clonazepam 4 μg/kg, concluded from the 1-125 μg/kg experiments) | Amount at which clonazepam has an anti-epileptic effect ([1]; healthy (non inoculated) mice, ip pretreatment 60 min before PTZ, FIG. 4) [µg/kg] | Anti-epileptic effect (time before tonic seizures) ([1]; healthy mice, clonazepam 1 μg/kg ip, FIG. 4) | Anti-epileptic effect (time before tonic seizures) ([1]; healthy mice, clonazepam 5 μg/kg ip, FIG. 4) | half-life [2] [h] | Kaplan-Meier survival rate (Streptococcus Pneumoniae [3]; clonazepam 1 μg/kg ip + ceftriaxone, compared with 4 μg/kg, p=0,045 Logrank, FIG. 2) | Kaplan-Meier survival rate (Streptococcus Pneumoniae [3]; clonazepam 2 μg/kg ip + ceftriaxone, compared with 4 μg/kg, p=0,045 Logrank, FIG. 2) | Kaplan-Meier survival rate (Streptococcus Pneumoniae [3]; clonazepam 4 μg/kg ip 25 h after inoculation + ceftriaxone 4, 0.4, 0.4 mg/day at 24, 48, 72 h, vs ceftriaxone + NaCl, p=0,04 Logrank, FIG. 1) | Kaplan-Meier survival rate, oral vs intraperitoneal (Streptococcus Pneumoniae [3]; clonazepam 4 μg/kg orally + ceftriaxone, compared with intraperitoneally administered combination, FIGS. 1, 3, 6) | Kaplan-Meier survival rate (Streptococcus Pneumoniae [3]; clonazepam 20 μg/kg ip + ceftriaxone, compared with 4 μg/kg, FIG. 1) | Kaplan-Meier survival rate (Streptococcus Pneumoniae [3]; clonazepam 100 μg/kg ip + ceftriaxone, compared with 4 μg/kg, FIG. 1) | Amount giving satisfactory potentiating effects in mice (Streptococcus Pneumoniae [3]; mice, clonazepam with antibiotic) | Growth inhibition diameter (potentiation of ceftriaxone in vitro) (Streptococcus Pneumoniae [4]; ceftriaxone 0,8-0,2-0,05 μg/mL + clonazepam 0,1 μg/mL) | Growth inhibition diameter (intrinsic antibiotic activity) (Streptococcus Pneumoniae [4]; clonazepam alone 10, 1, 0,1 μg/mL) | Growth inhibition diameter (Streptococcus Pneumoniae [4]; ceftriaxone alone 0,05-3,2 μg/mL) |
| --- | --- | --- | --- | --- | --- | --- | --- | --- | --- | --- | --- | --- | --- | --- | --- | --- |
| O=C1CN=C(c2ccccc2Cl)c2cc([N+](=O)[O-])ccc2N1 [clonazepam, 5-(2-chlorphenyl)-1,3-dihydro-7-nitro-2H-1,4-benzodiazepine-2-one] | no epileptic effect | no epileptic effect | ≥ 25 | no effect | no effect | 18 to 50 | significantly less efficient | significantly less efficient | survival increase | lower | not as efficient | not as efficient | at least 2 μg/kg | Nor is it able to potentiate the antibiotic activity of ceftriaxone in vitro | no intrinsic antibiotic activity | – |
| CO/N=C(\C(=O)N[C@@H]1C(=O)N2C(C(=O)O)=C(CSc3nc(=O)c(=O)[nH]n3C)CS[C@H]12)c1csc(N)n1 [ceftriaxone] | – | – | – | – | – | – | – | – | – | – | – | – | – | – | – | inhibit bacterial growth in a dose-dependent manner |
